Experimental data as given in patent publication US12377110B2, “Fospropofol methods and compositions” (Epalex Corporation, priority 2019, dated 2025).
Several values for one entry are separate records, joined by “and”; a condition that tells them apart may be missing. Equal entries are not always repeated. Where two headings read alike, the source gives them in different places.

Tests used:
[1] = Study No. 15-3 toxicokinetics of fospropofol and propofol in plasma; format: in vivo, Sprague-Dawley rats; details: for AUC(0-t) / Cmax / Tmax: Sprague-Dawley, rat, plasma, po, oral gavage fospropofol disodium; for AUC(0-t): read-out: Fospropofol AUC0-6 hr; for Cmax: read-out: Fospropofol Cmax; for Tmax: read-out: Fospropofol Tmax
Description: The purpose of Study No. 15-3 (GLP) was to determine the potential toxicity of fospropofol in Sprague-Dawley rats when administered once daily by oral gavage for 14 days. […] The cause of death for the three 250 mg/kg/day group main study females found dead could not be determined, but was considered related to the pharmacodynamic effects of fospropofol, based on the time of death relative to the time of close administration, and the clinical signs recorded before death. Clinical observations during the closing period for these animals included labored breathing, prostrate, splayed hindlimbs, uncoordinated movement, decreased activity, and eyes closed.

[2] = Study A17: PK of fospropofol and propofol after single oral dose of fospropofol disodium 800 mg in subjects with migraine; details: for AUC / Cmax / Tmax: female, human, po, 800 mg; for Cmax: Fospropofol Cmax; for Tmax: Fospropofol Tmax
Description: The study is planned to complete approximately 85 subjects. • Enrolled subjects will be asked to come to the study site for treatment when they experience a qualifying migraine headache. Dosing must occur within 4 hours after onset of the migraine symptoms. If treatment at the study site is not feasible or practicable within 4 hours after onset of migraine symptoms, subjects should use their usual medication for that headache and attempt to visit the clinic for treatment as soon as possible (within 4 hours) after onset of their next migraine headache. Dosing must occur within 60 days after enrollment (see Post-enrollment Period below). • At clinic check-in for treatment, study personnel will verify eligibility for closing regarding the criteria for a qualifying headache and adherence to post-enrollment study restrictions (see Eligibility for Dosing below). • Treatment will consist of a single oral dose of fospropofol disodium. […] Because the prevalence of migraine headaches is higher in women than in men, efforts will be made to enroll at least 50% women. • Subjects must meet the general inclusion and exclusion criteria listed below (Inclusion Criteria and Exclusion Criteria) at screening to be enrolled in the study. To be eligible for fospropofol disodium treatment after onset of a migraine headache, enrolled subjects must meet criteria specific to the presenting headache at clinic check-in (see Qualifying Headache below) and adhere to study restrictions specific to the period between enrollment and clinic check-in (see Post-enrollment Restrictions below). • Inclusion Criteria Subjects must meet all of the following criteria at screening to be enrolled in the study: • 1. Written informed consent approved by the Institutional Review Board (IRB) given before any study-related procedures are performed • 2. […] Complete abstinence alone can be used as a method of contraception. • 6. […] Able to comprehend the nature of the study, capable of giving written informed consent, and able to communicate effectively with clinic staff (as assessed by the investigator) • 8. Available to volunteer for the entire study duration and willing to adhere to all protocol requirements, including the post-enrollment restrictions (see Post-enrollment Restrictions below) • 9. Agrees not to post any information related to the study on any website or social media site (e.g., Facebook, Twitter, LinkedIn, Google+, etc.) until the entire trial has been completed • 10. Willing to forgo rescue medicine for at least 2 hours after initiation of treatment with study drug (see In-Clinic Rescue Medicine) • Exclusion Criteria Subjects to whom any of the following criteria apply at screening will be excluded: • 1. History of hemiplegic migraine (at any time in the past). • 2. History of headaches of any type occurring on ≥15 days/month during any of the 3 months prior to screening. • 3.

[3] = female, 50 mg/kg, Female, 50 mg/kg, Day 1
[4] = female, 50 mg/kg, Female, 50 mg/kg, Day 14
[5] = female, 100 mg/kg, Female, 100 mg/kg, Day 1
[6] = female, 100 mg/kg, Female, 100 mg/kg, Day 14
[7] = female, 250 mg/kg, Female, 250 mg/kg, Day 1
[8] = female, 250 mg/kg, Female, 250 mg/kg, Day 14
[9] = male, 50 mg/kg, Male, 50 mg/kg, Day 1
[10] = male, 50 mg/kg, Male, 50 mg/kg, Day 14
[11] = male, 100 mg/kg, Male, 100 mg/kg, Day 1
[12] = male, 100 mg/kg, Male, 100 mg/kg, Day 14
[13] = male, 250 mg/kg, Male, 250 mg/kg, Day 1
[14] = male, 250 mg/kg, Male, 250 mg/kg, Day 14
[15] = A17 vs. A16 800 mg Cohort, excluding subject 308
[16] = Study A17 vs. A16 800 mg Cohort, excluding subject 308
[17] = plasma, Mean, Mean without Subject 6008 (below limit of quantitation at all time points), Fospropofol Disodium 800 mg oral
[18] = plasma, Mean, N = 12 migraine subjects, Fospropofol Disodium 800 mg oral
[19] = individual migraine subjects, Fospropofol Disodium 800 mg oral
[20] = plasma, individual migraine subjects (N = 12), Fospropofol Disodium 800 mg oral

Compound: CC(C)c1cccc(C(C)C)c1OCOP(=O)(O)O [fospropofol, (2,6-diisopropylphenoxy)methyl dihydrogen phosphate]
- Increase of fospropofol Cmax and AUC0-6hr with dose ([1]; 50, 100, and 250 mg/kg/day, Day 1 and Day 14): greater than close-proportional
- AUC(0-t) [1, 3]: 166 ng·h/mL
- Cmax [1, 3]: 582 ng/mL
- Tmax [1, 3]: 4.98 min
- AUC(0-t) [1, 4]: 160 ng·h/mL
- Cmax [1, 4]: 341 ng/mL
- Tmax [1, 4]: 15 min
- AUC(0-t) [1, 5]: 827 ng·h/mL
- Cmax [1, 5]: 1630 ng/mL
- Tmax [1, 5]: 4.98 min
- AUC(0-t) [1, 6]: 1170 ng·h/mL
- Cmax [1, 6]: 2560 ng/mL
- Tmax [1, 6]: 4.98 min
- AUC(0-t) [1, 7]: 4630 ng·h/mL
- Cmax [1, 7]: 8400 ng/mL
- Tmax [1, 7]: 4.98 min
- AUC(0-t) [1, 8]: 3810 ng·h/mL
- Cmax [1, 8]: 8440 ng/mL
- Tmax [1, 8]: 4.98 min
- Fospropofol AUC0-6hr following repeated administration ([1]; male and female rats): did not appear to change
- AUC(0-t) [1, 9]: 97.1 ng·h/mL
- Cmax [1, 9]: 178 ng/mL
- Tmax [1, 9]: 4.98 min
- AUC(0-t) [1, 10]: 96.9 ng·h/mL
- Cmax [1, 10]: 149 ng/mL
- Tmax [1, 10]: 4.98 min
- AUC(0-t) [1, 11]: 386 ng·h/mL
- Cmax [1, 11]: 930 ng/mL
- Tmax [1, 11]: 4.98 min
- AUC(0-t) [1, 12]: 370 ng·h/mL
- Cmax [1, 12]: 1360 ng/mL
- Tmax [1, 12]: 4.98 min
- AUC(0-t) [1, 13]: 3720 ng·h/mL
- Cmax [1, 13]: 8510 ng/mL
- Tmax [1, 13]: 4.98 min
- AUC(0-t) [1, 14]: 2130 ng·h/mL
- Cmax [1, 14]: 5020 ng/mL
- Tmax [1, 14]: 4.98 min
- Dependence of systemic exposure on sex ([1]; rats, 14 days oral gavage fospropofol disodium): greater exposure in females
- Ratio of mean fospropofol Auc1, migraine subjects (all female) to female healthy volunteers [2, 15]: 110%
- Ratio of mean fospropofol Auc2, migraine subjects (all female) to female healthy volunteers [2, 15]: 116%
- Ratio of mean fospropofol Auc4, migraine subjects (all female) to female healthy volunteers [2, 15]: 120%
- Ratio of mean fospropofol Cmax, migraine subjects (all female) to female healthy volunteers [2, 15]: 94%
- Ratio of mean fospropofol Tmax, migraine subjects (all female) to female healthy volunteers [2, 15]: 89%
- Ratio of mean fospropofol Auc1, migraine subjects to healthy volunteers [2, 16]: 121%
- Ratio of mean fospropofol Auc2, migraine subjects to healthy volunteers [2, 16]: 130%
- Ratio of mean fospropofol Auc4, migraine subjects to healthy volunteers [2, 16]: 135%
- Ratio of mean fospropofol Cmax, migraine subjects to healthy volunteers [2, 16]: 105%
- Ratio of mean fospropofol Tmax, migraine subjects to healthy volunteers [2, 16]: 98%
- AUC ([2]; plasma, Fospropofol AUC1, Mean, Mean without Subject 6008 (below limit of quantitation at all time points), Fospropofol Disodium 800 mg oral): 3360 ng·h/mL
- AUC ([2]; plasma, Fospropofol AUC1, Mean, Mean, N = 12 migraine subjects, Fospropofol Disodium 800 mg oral): 3080 ng·h/mL
- AUC ([2]; plasma, Fospropofol AUC2, Mean, Mean without Subject 6008 (below limit of quantitation at all time points), Fospropofol Disodium 800 mg oral): 4310 ng·h/mL
- AUC ([2]; plasma, Fospropofol AUC2, Mean, Mean, N = 12 migraine subjects, Fospropofol Disodium 800 mg oral): 3950 ng·h/mL
- AUC ([2]; plasma, Fospropofol AUC4, Mean, Mean without Subject 6008 (below limit of quantitation at all time points), Fospropofol Disodium 800 mg oral): 4650 ng·h/mL
- AUC ([2]; plasma, Fospropofol AUC4, Mean, Mean, N = 12 migraine subjects, Fospropofol Disodium 800 mg oral): 4260 ng·h/mL
- Cmax [2, 17]: 6320 ng/mL
- Cmax [2, 18]: 5790 ng/mL
- Tmax [2, 17]: 19.8 min
- Tmax [2, 18]: 19.8 min
- Fospropofol AUC4 [2, 19]: 3837.04 ng·h/mL and 1469.88 ng·h/mL and 4303.32 ng·h/mL and 4814.33 ng·h/mL and 6942.73 ng·h/mL and 1702.48 ng·h/mL and 8572.36 ng·h/mL and 1248.45 ng·h/mL and 3152.5 ng·h/mL and 7130.22 ng·h/mL and 7986.57 ng·h/mL
- Fospropofol Cmax [2, 19]: 5163.62 ng/mL and 3285.03 ng/mL and 5036.79 ng/mL and 7527.26 ng/mL and 10597.13 ng/mL and 2219.93 ng/mL and 8307.86 ng/mL and 1419.1 ng/mL and 4507.39 ng/mL and 11463.93 ng/mL and 10001.18 ng/mL
- Fospropofol Tmax [2, 19]: 10 min and 40 min
- Fospropofol AUC 1 hr [2, 20]: 723.61 ng·h/mL and 2418.57 ng·h/mL and 5268.76 ng·h/mL and 6456.6 ng·h/mL and 2684.78 ng·h/mL and 1315.43 ng·h/mL and 3262.09 ng·h/mL and 3522.27 ng·h/mL and 5673.87 ng·h/mL and 1193.95 ng·h/mL and 4461.52 ng·h/mL
- Fospropofol AUC 2 hr [2, 20]: 1007.69 ng·h/mL and 3045.22 ng·h/mL and 6730.95 ng·h/mL and 7756.33 ng·h/mL and 3666.13 ng·h/mL and 1421.1 ng·h/mL and 4174.88 ng·h/mL and 4386.97 ng·h/mL and 6702.97 ng·h/mL and 1610.51 ng·h/mL and 6945.81 ng·h/mL
